# According to patent US20190099413A1, “DRUG FOR CANCER THERAPY CHARACTERIZED IN THAT AXL INHIBITOR AND IMMUNE CHECKPOINT INHIBITOR ARE ADMINISTERED IN COMBINATION” (ONO PHARMACEUTICAL CO., LTD., priority 2016, published 2019):
# Tested on: mouse colon cancer cell line MC38
# Experiment: Anti-tumor action on mouse colon cancer cell line MC38 subcutaneous cancer-bearing model
# Format: in vivo
# Settings: for average volume of tumors on day 14: C57/BL6 mice; for Number of cases where tumor was eliminated: observed until 28th day, cases/n; for mice in which cancer had been eliminated: single administration or combined use with 4H2
# Procedure: Biological Example 1: Evaluation of Anti-Tumor Action by Combined Use of Compound A and Anti-PD-1 Antibody on Mouse Colon Cancer Cell Line MC38 Subcutaneous Cancer-Bearing Model (In Vivo)
# For the compound A, mouse feed CRF-1 containing 0.0013% or 0.013% compound A was manufactured by Oriental Yeast Co., Ltd. so as to be administered at a dose of 2 or 20 mg/kg/day via diet. 4H2 as the anti-mouse PD-1 antibody, which had been prepared in KITAYAMA LABES CO., LTD., was obtained. C57/BL6 mouse colon cancer cell line MC38 was subcutaneously transplanted into dorsal parts of […] syngeneic mice (C57/BL6, female, 6 weeks old (Charles River Laboratories Japan, Inc.)) to produce MC38 subcutaneous cancer-bearing mice. On the day when the average of tumor volumes reached 150 mm^3, group assignment was carried out based on the tumor volumes (the day on which administration was started was defined as Day 0). To the MC38 subcutaneous cancer-bearing mice, PBS (on days 0, 6, 12, 18, and 24, intraperitoneal administration, n=9), 4H2 (on Day 0, 20 mg/kg/day and on days 6, 12, 18, and 24, 10 mg/kg/day, intraperitoneal administration, n=8), the compound A (on days 0 to 28, 2 mg/kg, administration via diet (n=9)), the compound A (on days 0 to 28, 20 mg/kg, administration via diet (n=9)), combined use of 4H2 and the compound A (compound A, 2 mg/kg (n=9)), and combined use of 4H2 and the compound A (compound A, 20 mg/kg (n=9)) were administered. Change of the volume of tumor was observed continuously until the 28th day. Note here that, from the viewpoint of the animal ethics, a mouse whose tumor exceeded 3000 mm^3 in volume was euthanatized, and evaluation for the group to which the euthanatized mouse belonged was stopped at this point.
smiles,measurement,setting,value
"COc1cc2nccc(Oc3ccc(NC(=O)c4cc5c(n(-c6ccccc6)c4=O)CCCC5=O)nc3)c2cc1OC [Compound A, N-{5-[(6,7-dimethoxy-4-quinolinyl)oxy]-2-pyridinyl}-2,5-dioxo-1-phenyl-1,2,5,6,7,8-hexahydro-3-quinolinecarboxamide]",average volume of tumors on day 14,"compound A 2 mg/kg via diet days 0 to 28, alone or combined with 4H2 (20 then 10 mg/kg/day i.p.)",1379.5 mm^3
same,Number of cases where tumor was eliminated,"compound A 2 mg/kg via diet days 0 to 28, alone or combined with 4H2",1/9
same,mice in which cancer had been eliminated,compound A 2 mg/kg,one
same,average volume of tumors on day 14,"compound A 20 mg/kg via diet days 0 to 28, alone or combined with 4H2 (20 then 10 mg/kg/day i.p.)",639.3 mm^3
same,Number of cases where tumor was eliminated,"compound A 20 mg/kg via diet days 0 to 28, alone or combined with 4H2",1/9
same,mice in which cancer had been eliminated,compound A 20 mg/kg,one
